The record followed here is PMC10793102 (Acta Pharmaceutica Sinica. B, 2023).

Where two headings read alike, the source gives them in different places.

For data set [1], the system named is phosphorylation of RIPK1, RIPK3 and MLKL. Put plainly: Western blotting of necroptotic signaling in L929 cells. Format: cell-based, mouse. Background: A western blot detects proteins with antibodies after separation by electrophoresis.
In data set [2] the test system is FADD−/− Jurkat. Put plainly: Cell viability assay, protection from necroptosis in FADD−/− Jurkat cells. In kind it is cell-based. The note with it: Homo sapiens, 16 h.
Data set [3] relates to L929. Put plainly: Cell viability assay, protection from necroptosis in L929 cells. The note with it: Mus musculus, L929, 16 h. In kind it is cell-based, mouse.
Data set [4] addresses T1, CYP2C8 (Homo sapiens, UniProt P10632).
T1 sequence (P10632 1-490): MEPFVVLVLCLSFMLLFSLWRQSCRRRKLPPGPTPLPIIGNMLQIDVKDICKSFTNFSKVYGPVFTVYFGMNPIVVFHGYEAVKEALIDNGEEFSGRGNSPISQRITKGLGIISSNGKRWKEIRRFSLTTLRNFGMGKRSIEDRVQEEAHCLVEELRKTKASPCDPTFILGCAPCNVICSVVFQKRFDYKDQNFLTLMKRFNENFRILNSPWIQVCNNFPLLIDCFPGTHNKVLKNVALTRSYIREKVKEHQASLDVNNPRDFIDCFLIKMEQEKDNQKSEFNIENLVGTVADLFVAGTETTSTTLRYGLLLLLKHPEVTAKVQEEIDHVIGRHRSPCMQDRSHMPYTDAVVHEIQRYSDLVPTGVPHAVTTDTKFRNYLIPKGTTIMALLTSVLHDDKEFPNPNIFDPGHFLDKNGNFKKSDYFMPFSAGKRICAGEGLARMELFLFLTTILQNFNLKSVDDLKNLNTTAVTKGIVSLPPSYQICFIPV
Put plainly: CYP450 inhibition. Format: in vitro ADME.

In data set [5] the target is T2, hRIPK1 (Homo sapiens, UniProt Q13546).
T2 sequence (Q13546 1-671): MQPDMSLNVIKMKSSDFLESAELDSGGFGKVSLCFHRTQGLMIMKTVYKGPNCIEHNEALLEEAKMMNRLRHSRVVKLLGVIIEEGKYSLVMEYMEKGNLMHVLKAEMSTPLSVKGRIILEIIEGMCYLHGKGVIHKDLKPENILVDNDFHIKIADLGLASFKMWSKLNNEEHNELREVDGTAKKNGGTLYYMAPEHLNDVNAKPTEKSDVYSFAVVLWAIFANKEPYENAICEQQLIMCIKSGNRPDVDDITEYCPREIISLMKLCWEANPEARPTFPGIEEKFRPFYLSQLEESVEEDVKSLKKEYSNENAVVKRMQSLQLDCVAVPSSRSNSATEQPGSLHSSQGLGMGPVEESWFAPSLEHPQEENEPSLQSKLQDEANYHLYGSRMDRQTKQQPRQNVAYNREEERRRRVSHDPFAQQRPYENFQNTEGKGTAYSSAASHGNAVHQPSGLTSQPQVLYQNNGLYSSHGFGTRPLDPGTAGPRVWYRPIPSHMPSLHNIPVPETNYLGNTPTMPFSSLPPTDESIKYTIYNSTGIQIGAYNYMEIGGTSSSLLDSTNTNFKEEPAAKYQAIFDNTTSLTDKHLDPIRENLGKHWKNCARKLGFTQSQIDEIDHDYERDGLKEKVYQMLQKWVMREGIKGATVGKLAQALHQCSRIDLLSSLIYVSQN
Put plainly: In vitro RIPK1 kinase activity assay. Format: biochemical. The note with it: Enzymatic IC50s RIPK1, hRIPK1 enzymatic assay.

Data set [6] addresses hRIPK3 (Homo sapiens, UniProt Q9Y572). Put plainly: In vitro RIPK3 kinase activity assay. Format: biochemical.
The nature of data set [7]: PK study in mice. Format: in vivo. The conditions noted are these: male, ICR, mouse, plasma.
Data set [8] is described as follows: PK study in rats. Format: in vivo. The conditions noted are these: SD, rat, plasma.
The target in data set [9] is TEL-TRKA fusion (Homo sapiens, UniProt P04629+P41212). Put plainly: Anti-proliferation in engineered Ba/F3 cells dependent on TEL-TRKA. Format: cell-based. The note with it: read-out: IC50 anti-proliferative effect, TEL-TRKA Ba/F3; 72 h.
Sequence of TEL-TRKA fusion (P04629 510-781 limits assumed, one chain of several): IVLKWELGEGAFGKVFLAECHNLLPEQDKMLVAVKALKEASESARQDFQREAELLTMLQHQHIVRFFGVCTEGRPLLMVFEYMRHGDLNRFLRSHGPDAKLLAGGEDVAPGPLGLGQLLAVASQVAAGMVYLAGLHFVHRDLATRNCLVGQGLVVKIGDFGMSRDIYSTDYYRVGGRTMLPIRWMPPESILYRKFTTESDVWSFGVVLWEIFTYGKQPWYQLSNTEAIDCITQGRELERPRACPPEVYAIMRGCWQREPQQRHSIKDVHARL
The test system of data set [10] is RIPK1. In kind it is cell-based, human.
In data set [11] the test system is p-S166 RIPK1. Put plainly: Pharmacodynamic study in SIRS mouse model, p-RIPK1 immunostaining. In kind it is in vivo. The conditions noted are these: 1 mpk, 8 h after TNFα (20 μg).
Data set [12] has as its system Ripk1K612R/K612R mice. Format: in vivo, mouse. The note with it: 10 or 20 mpk po QD, 40 days.
Data set [13] deals with p-S345 MLKL. Nature of the data set: Pharmacodynamic study in SIRS mouse model, p-MLKL immunostaining. Format: in vivo. The conditions noted are these: 2 mpk, 8 h after TNFα (20 μg).
Data set [14] has as its system TNFα-induced systemic inflammatory response syndrome. Put plainly: TNFα-induced SIRS mouse model. Format: in vivo, C57BL/6J male mice. The conditions noted are these: TNFα 10 μg iv.
For data set [15], the system named is SARS-CoV-2. In kind it is cell-based. The note with it: 5 μmol/L, 48 h, human lung organoids.
The test system of data set [16] is RA symptoms. Nature of the data set: RA mouse model induced by collagen antibodies and LPS. The conditions noted are these: 15 or 30 mpk po daily, 8 days. Format: in vivo, BALB/c male mice.
The mark [17] stands for this setting: read-out: EC50 FADD−/− Jurkat T + S.
Setting [18] is: read-out: EC50 FADD−/− Jurkat TNFα.

Sequence of hRIPK3 (Q9Y572 whole entry): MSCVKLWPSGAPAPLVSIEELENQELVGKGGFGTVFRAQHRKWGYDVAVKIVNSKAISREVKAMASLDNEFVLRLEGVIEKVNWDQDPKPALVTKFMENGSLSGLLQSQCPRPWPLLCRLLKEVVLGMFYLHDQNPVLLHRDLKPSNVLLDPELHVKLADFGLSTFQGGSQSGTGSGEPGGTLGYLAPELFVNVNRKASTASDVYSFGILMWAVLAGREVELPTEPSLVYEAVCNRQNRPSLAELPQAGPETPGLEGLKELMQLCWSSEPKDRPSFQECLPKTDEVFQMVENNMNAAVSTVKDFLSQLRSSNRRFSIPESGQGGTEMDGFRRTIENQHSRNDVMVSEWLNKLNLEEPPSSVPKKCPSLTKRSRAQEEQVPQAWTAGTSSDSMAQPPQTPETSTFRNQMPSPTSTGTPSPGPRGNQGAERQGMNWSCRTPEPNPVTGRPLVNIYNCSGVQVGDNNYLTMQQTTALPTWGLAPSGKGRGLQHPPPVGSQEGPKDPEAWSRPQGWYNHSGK

As for `CN1C(=O)[C@@H](NC(=O)c2n[nH]c(Cc3ccccc3)n2)COc2ccccc21` [compound 2, GSK2982772, reference compound], the “phosphorylation cascade (Western blot), L929” value in data set [1] is “inactive even at 1 μmol/L”. The EC50 in [2] (setting [17]) is 3.9 nM; in data set [2] (setting [18]) it was 0.5 nM; in [3] (read-out: EC50 L929 T + S) it was 8280 nM; in data set [3] (read-out: EC50 L929 TNFα) it was 1200 nM.

As for `Cn1ncc(C(=O)NCc2ccc(-n3cnc4c(N)ncnc43)cc2)c1Cc1ccccc1` [compound 39, N-(4-(6-Amino-9H-purin-9-yl)benzyl)-5-benzyl-1-methyl-1H-pyrazole-4-carboxamide], in data set [4], the “inhibition of CYP2C8 (in words)” value is on record as “weakly inhibited CYP2C8”. This compound yielded an IC50 in [5] of 9.5 nM. For the same compound, the IC50 in data set [6] is above 1000 nM. For the same compound, in [7] (iv, 1 mg/kg), the AUC(0-inf) (commonly the area under the concentration-time curve extrapolated to infinity) is 882 ng·h/mL; the AUC(0-t) (usually the area under the concentration-time curve up to a stated or last time point) stood at 862 ng·h/mL; the MRT inf – broadly, a mean duration of stay, worked out from the concentration-time curve – is 2.08 h; the Vd (usually the apparent volume that relates the amount in the body to the concentration in plasma or blood) is 2.35 L/kg. In data set [7] (iv, 1 mg/kg), the clearance – broadly, a measure of how efficiently the substance is removed, as volume per time – was 18.3 mL/min/kg and the half-life (in general, how long it takes for the measured level to halve) was 0.81 h. In addition, in data set [7] (po, 10 mg/kg), the AUC(0-inf) stood at 2210 ng·h/mL, the AUC(0-t) was 2190 ng·h/mL, the Cmax (commonly the peak of the concentration-time curve) was 1340 ng/mL and the MRT inf worked out at 2.55 h. In data set [7] (po, 10 mg/kg), the Tmax – broadly, the time at which the peak concentration occurs – came out at 0.33 h; the bioavailability (commonly dose-corrected exposure relative to a reference, in per cent) was found to be 25.4%; the half-life is 1.34 h. Moreover, the EC50 in data set [2] (setting [17]) came out at 1 nM. The EC50 in data set [2] (setting [18]) turned out to be 0.04 nM. Besides, in [3] (read-out: EC50 L929 T + S), the EC50 came to 3.6 nM. In addition, the EC50 in [3] (read-out: EC50 L929 TNFα) worked out at 0.9 nM.

With `Cn1nnc(C(=O)NCc2ccc(-n3cnc4c(N)ncnc43)cc2)c1Cc1ccccc1` [compound 49, N-(4-(6-Amino-9H-purin-9-yl)benzyl)-5-benzyl-1-methyl-1H-1,2,3-triazole-4-carboxamide], the “inhibition of CYP2C8 (in words)” value in data set [4] is “weakly inhibited CYP2C8”. In [5], this compound returned an IC50 of around 6 nM. In data set [6], this compound gave an IC50 above 1000 nM. In data set [7] (iv, 1 mg/kg), this compound displayed an AUC(0-inf) of 1420 ng·h/mL, an AUC(0-t) of 1240 ng·h/mL, an MRT inf of 10.5 h and a Vd of 6.98 L/kg. In data set [7] (iv, 1 mg/kg), this compound gave a clearance of 11.7 mL/min/kg and a half-life of 1.03 h. In data set [7] (po, 10 mg/kg), the AUC(0-inf) was determined as 4330 ng·h/mL, the AUC(0-t) worked out at 4110 ng·h/mL, the Cmax came to 1220 ng/mL and the MRT inf came to 5.75 h. Further, in data set [7] (po, 10 mg/kg), the Tmax was 0.67 h, the bioavailability is 33.3% and the half-life was 1.65 h. The EC50 in data set [2] (setting [17]) turned out to be 0.5 nM. Besides, the EC50 in [2] (setting [18]) is 0.06 nM. The EC50 in [3] (read-out: EC50 L929 T + S) came to 0.06 nM. Moreover, the EC50 in [3] (read-out: EC50 L929 TNFα) turned out to be 0.03 nM.

For `C[C@@H](c1ccc(-n2cnc3c(N)ncnc32)cc1)N1CCc2nn(C)c(Cc3ccccc3)c2C1=O` [compound 62, (S)-5-(1-(4-(6-Amino-9H-purin-9-yl)phenyl)ethyl)-3-benzyl-2-methyl-2,5,6,7-tetrahydro-4H-pyrazolo[4,3-c]pyridin-4-one], in [8] (po, 5 mg/kg), the Tmax came out at 0.5 h, the bioavailability turned out to be 34.1% and the half-life was 4.19 h. Further, in data set [8] (male, iv, 0.5 mg/kg), the AUC(0-inf) stood at 397 ng·h/mL, the AUC(0-t) came out at 390 ng·h/mL, the MRT inf was found to be 1.03 h and the Vd was determined as 0.77 L/kg. In [8] (male, iv, 0.5 mg/kg), this compound gave a clearance of 13.3 mL/min/kg and a half-life of 0.91 h. In [8] (male, po, 5 mg/kg), this compound showed an AUC(0-inf) of 2250 ng·h/mL, an AUC(0-t) of 2200 ng·h/mL, a maximum concentration (Cmax) of 505 ng/mL and a mean residence time MRT inf of 6.82 h. The IC50 in data set [9] was 634 nM. Besides, the IC50 in data set [5] was found to be 3.5 nM. In data set [6], this compound returned an IC50 of 730 nM. For the same compound, the “fold less potent against hRIPK3 than hRIPK1” value in data set [6] (ratio of enzymatic IC50s) was “at least 200 fold”. In [7] (iv, 0.5 mg/kg), this compound had an AUC(0-inf) of 476 ng·h/mL, an AUC(0-t) of 471 ng·h/mL, an MRT inf of 1.49 h and a Vd of 0.94 L/kg. In data set [7] (iv, 0.5 mg/kg), this compound gave a clearance of 10 mL/min/kg and a half-life of 1.29 h. Further, in [7] (po, 5 mg/kg), the AUC(0-inf) came to 6520 ng·h/mL, the AUC(0-t) came to 6500 ng·h/mL, the Cmax came out at 1980 ng/mL and the MRT inf came out at 2.81 h. In data set [7] (po, 5 mg/kg), the Tmax worked out at 0.5 h, the bioavailability was determined as 82.2% and the half-life was 3.86 h. Besides, the “activation of RIPK1 in SARS-CoV-2 infected human lung organoids” value in [10] is “completely abolished the activation of RIPK1”. Further, the “phosphorylation cascade (Western blot), L929” value in data set [1] (TNFα (40 ng/mL) and SM164 (25 nmol/L), 15 h, titration) is listed as “almost completely blocked the phosphorylation cascade at 40 nmol/L”. The “TNFα-induced activation of RIPK1 in mouse organs” value in [11] was “almost eliminated TNFα-induced activation of RIPK1 in mouse organs”. For the same compound, in data set [12], the “adverse effects during long-term treatment” value was “no adverse effects had been observed”; the “colorectal stricture, splenomegaly and thymus hyperplasia symptoms in IBD mice” value is reported as “significantly alleviated”. Also, the “diarrhea and weight loss symptoms in IBD mice” value in [12] (vs control group) is “significantly reduced diarrhea and weight loss symptoms”. In addition, the EC50 in data set [2] (setting [17]) turned out to be 0.1 nM. For the same compound, the EC50 in data set [2] (setting [18]) turned out to be 0.02 nM. The “phosphorylation levels of MLKL in mouse organs” value in data set [13] is listed as “significantly suppressed”. Also, the EC50 in data set [3] (read-out: EC50 L929 T + S) amounted to 1.3 nM. Also, in [3] (read-out: EC50 L929 TNFα), the EC50 was found to be 0.2 nM. For the same compound, the “symptoms (hypothermia) in SIRS mice” value in data set [14] (1 mpk (po)) is “almost eliminated the symptoms”. For the same compound, in [14] (1 mpk (po), n = 7), the “survival in SIRS mice” value was “protected all mice from the fatality”. Further, the “acute hypothermia in SIRS mice” value in data set [14] (2 mpk (po)) is recorded as “completely mitigated the acute hypothermia”. Besides, the “antiviral effects (SARS-CoV-2 N protein levels)” value in [15] was “very strong antiviral effects compared to reported RIPK1i”. In addition, in data set [16], the “RA symptoms (paw edema, erythema, joint stiffness)” value is “effectively eliminate most RA symptoms” and the “bodyweight in RA mice” value is “without affecting the bodyweight”.
